Data taken from US6444685B1, “N-(4-sulfonylaryl)Cyclylamine 2-hydroxyethylamines as beta-3 adrenergic receptor agonists” (Wyeth, priority 2000, dated 2002).

Tests used:
[1] = target: T1, human β3 adrenergic receptor (Homo sapiens, UniProt P13945); experiment: cAMP accumulation (SPA) in CHO cells transfected with human β3 adrenergic receptor; assay type: cell-based; conditions: for EC50: CHO cells expressing human β3-AR, cAMP, 30 min incubation, 10^−9 M to 10^−5 M, read-out: beta-3 EC50; for beta-3 (IA) maximal response relative to isoproterenol: IA = % activity compound / % activity isoproterenol at 10^−5 M, CHO human β3 cells
T1 construct: Full length β3 AR clones (402 amino acids) containing the last 6 amino acids of hβ3— AR are prepared; expressed in transfected cells; host or cells: CHO cells
T1 sequence (P13945 whole entry): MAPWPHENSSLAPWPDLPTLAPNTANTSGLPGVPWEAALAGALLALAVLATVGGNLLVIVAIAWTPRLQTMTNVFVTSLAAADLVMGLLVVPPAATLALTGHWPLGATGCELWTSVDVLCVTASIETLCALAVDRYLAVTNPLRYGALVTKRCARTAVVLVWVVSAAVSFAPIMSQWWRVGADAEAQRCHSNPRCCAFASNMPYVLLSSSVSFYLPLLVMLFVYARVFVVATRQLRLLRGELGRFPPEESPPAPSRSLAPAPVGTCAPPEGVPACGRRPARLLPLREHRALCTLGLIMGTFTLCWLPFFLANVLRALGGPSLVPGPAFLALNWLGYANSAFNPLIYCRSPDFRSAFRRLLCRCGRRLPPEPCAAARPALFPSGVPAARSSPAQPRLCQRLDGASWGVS
Summary of the method: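 CHO cells expressing human β3-AR (70–110 fmol/mg protein) treated with compound at 10^−9 to 10^−5 M in DMEM with 250 μM IBMX and 1 mM ascorbic acid, 30 min, 37 °C. cAMP measured by SPA; EC50 derived, and intrinsic activity expressed relative to the maximal response of 10^−5 M isoproterenol.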

| EC50 [1] [nM] | beta-3 (IA) maximal response relative to isoproterenol [1] | melting point | SMILES |
| --- | --- | --- | --- |
| 10 | (1) | 69 to 75 °C | CCCCNS(=O)(=O)c1ccc(N2CCC(NC[C@H](O)COc3cccc4[nH]c(=O)[nH]c34)CC2)cc1 [Example 12, N-Butyl-4-{4-[(2S)-2-hydroxy-3-(2-oxo-2,3-dihydro-1H-benzoimidazol-4-yloxy)-propylamino]-piperidin-1-yl}-benzenesulfonamide] |
| 28 | (0.81) | 36 to 39 °C | CNC(=O)C1CCCN1S(=O)(=O)c1ccc(N2CCC(NC[C@H](O)COc3cccc4[nH]c(=O)[nH]c34)CC2)cc1 (stereo partly drawn) [Example 17, 1-(4-{4-[(2S)-2-Hydroxy-3-(2-oxo-2,3-dihydro-1H-benzoimidazol-4-yloxy)-propylamino]-piperidin-1-yl}-benzenesulfonyl)-pyrrolidine-2-carboxylic Acid Methylamide] |
| 50 | (0.7) | 166 to 179 °C | CCCCNS(=O)(=O)c1ccc(N2CCC(NC[C@H](O)COc3cccc4[nH]c5ccccc5c34)CC2)cc1 [Example 13, N-Butyl-4-{4-[(2S)-3-(9H-carbazol-4-yloxy)-2-hydroxy-propylamino]-piperidin-1-yl}-benzenesulfonamide] |
| 100 | (0.45) | 58 to 64 °C | COc1ccc(NS(=O)(=O)c2ccc(N3CCC(NC[C@H](O)COc4cccc5[nH]c6ccccc6c45)CC3)cc2)cc1OC [Example 10, 4-{4-[(2S)-3-(9H-Carbazol-4-yloxy)-2-hydroxy-propylamino]-piperidin-1-yl}-N-(3,4-dimethoxy-phenyl)-benzenesulfonamide] |
| 330 | (0.83) | 101 to 106 °C | COc1ccc(NS(=O)(=O)c2ccc(N3CCC(NC[C@H](O)COc4ccc(O)cc4)CC3)cc2)cc1OC [Example 11, N-(3,4-Dimethoxy-phenyl)-4-{4-[(2S)-2-hydroxy-3-(4-hydroxy-phenoxy)-propylamino]-piperidin-1-yl}-benzenesulfonamide] |
| 9 | (0.96) | 230 °C (dec.) | O=C1CN(S(=O)(=O)c2ccc(N3CCC(NC[C@H](O)COc4cccc5[nH]c(=O)[nH]c45)CC3)cc2)C(=O)N1 [Example 49, 1-(4-{4-[(2S)-2-Hydroxy-3-(2-oxo-2,3-dihydro-1H-benzoimidazol-4-yloxy)-propylamino]-piperidin-1-yl}-benzenesulfonyl)-imidazolidine-2,4-dione] |
| 9 | (1.1) | 130 to 132 °C | Cc1ccc(S(=O)(=O)c2ccc(N3CCC(NC[C@H](O)COc4cccc5[nH]c(=O)[nH]c45)CC3)cc2)cc1 [Example 46, 4-((2S)-2-Hydroxy-3-{1-[4-(toluene-4-sulfonyl)-phenyl]-piperidin-4-ylamino}-propoxy)-1,3-dihydro-benzoimidazol-2-one] |
